The record followed here is patent publication US7964607B2, “Pyrazolo[3,4-d]pyrimidine compounds” (Pfizer Inc., priority 2007, dated 2011).

A word on the IC50: it is the concentration needed to halve the response being measured.

T1 sequence (O76083 whole entry): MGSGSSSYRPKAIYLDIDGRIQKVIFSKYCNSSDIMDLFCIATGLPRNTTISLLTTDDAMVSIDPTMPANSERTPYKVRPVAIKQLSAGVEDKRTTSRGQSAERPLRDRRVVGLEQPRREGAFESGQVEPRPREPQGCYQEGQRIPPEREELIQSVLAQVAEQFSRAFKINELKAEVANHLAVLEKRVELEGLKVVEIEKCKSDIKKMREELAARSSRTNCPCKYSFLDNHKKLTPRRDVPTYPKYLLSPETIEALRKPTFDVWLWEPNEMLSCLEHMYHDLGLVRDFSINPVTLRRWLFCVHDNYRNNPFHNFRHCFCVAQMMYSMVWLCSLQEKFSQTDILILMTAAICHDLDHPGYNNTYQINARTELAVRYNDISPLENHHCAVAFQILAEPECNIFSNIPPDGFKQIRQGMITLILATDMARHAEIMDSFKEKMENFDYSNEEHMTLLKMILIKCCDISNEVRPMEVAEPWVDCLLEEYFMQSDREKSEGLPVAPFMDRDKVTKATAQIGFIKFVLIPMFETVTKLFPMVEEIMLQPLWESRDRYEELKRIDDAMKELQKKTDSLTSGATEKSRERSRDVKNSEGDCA

One assay has as its target T1, human recombinant PDE9 enzyme (Homo sapiens, UniProt O76083).
T1 construct: made in house; host or cells: SF-9 insect cells
The assay can be described thus: Phosphodiesterase 9 (PDE9) inhibitory activity, Scintillation Proximity (SPA) assay. In kind it is biochemical.
Conditions: not given
How it is done: Phosphodiesterase 9 (PDE9) Inhibitory Activity The PDE9 assay was performed using the Phosphodiesterase Scintillation Proximity (SPA) assay (GE Healthcare Life Sciences). […] The human recombinant PDE9 enzyme was generated in SF-9 cells, the cell pellets were sonicated in buffer (20 mM TRIS, 2 mM benzamidine, 1 mM EDTA, 250 mM sucrose, 100 μM PMSF, pH 7.5 with HCl), centrifuged at 40,000×g for 20 min at 4° C. The supernatants were stored at −80° C. […] Test compounds were dissolved in DMSO, diluted in DI H2O and serially diluted in 20% DMSO/80% H2O, for a final concentration of 2% DMSO. For the assay the PDE9 was diluted with assay buffer such that 20% or less of the substrate was hydrolyzed to 5′GMP. Each assay well contained 10 μl of test compound or solvent, 40 μl of [^3H]CGMP and 50 μl of enzyme, background was determined by a high concentration of a PDE inhibitor. The assay was initiated with the addition of the enzyme and carried out at room temperature for 30 min. […] The plates were sealed, vortexed, allowed to set for >300 min, then counted in a Wallac TriLux MicroBeta LSC.
(In a scintillation proximity assay essentially only radioactivity close to the scintillant gives light.)
Consider `C[C@@H]1CN(Cc2ccccc2F)C[C@H]1c1nc2c(cnn2C2CCOCC2)c(=O)[nH]1` [Example 98, 6-[(3S,4S)-1-(2-fluorobenzyl)-4-methylpyrrolidin-3-yl]-1-(tetrahydro-2H-pyran-4-yl)-1,5-dihydro-4H-pyrazolo[3,4-d]pyrimidin-4-one], for which the IC50 amounted to 7.93 nM.

Regarding `Cc1ncc(CN2C[C@@H](C)[C@H](c3nc4c(cnn4C4CCOCC4)c(=O)[nH]3)C2)cn1` [Example 73, 6-{(3S,4S)-4-methyl-1-[(2-methylpyrimidin-5-yl)methyl]pyrrolidin-3-yl}-1-(tetrahydro-2H-pyran-4-yl)-1,5-dihydro-4H-pyrazolo[3,4-d]pyrimidin-4-one], the IC50 turned out to be 6.01 nM.

Still in this assay, the particulars now being: human recombinant PDE9 from SF-9 cells; 50 nM [3H]cGMP; room temperature, 30 min; Examples 3-114; read-out: G5678A (U): IC50.
For the molecule `C[C@@H]1CN(Cc2ccc3nccnc3c2)C[C@H]1c1nc2c(cnn2C2CCCC2)c(=O)[nH]1` (racemic) [Example 13, 1-cyclopentyl-6-[(3,4-trans)-4-methyl-1-(quinoxalin-6-ylmethyl)pyrrolidin-3-yl]-1,5-dihydro-4H-pyrazolo[3,4-d]pyrimidin-4-one], the IC50 was determined as 6.61 nM.

With `CC[C@@H]1CN(Cc2cnc(C)nc2)C[C@H]1c1nc2c(cnn2C(C)C)c(=O)[nH]1` (relative stereo) [Example 59, 6-{(3,4-trans)-4-ethyl-1-[(2-methylpyrimidin-5-yl)methyl]pyrrolidin-3-yl}-1-isopropyl-1,5-dihydro-4H-pyrazolo[3,4-d]pyrimidin-4-one], the concentration for half-maximal inhibition (IC50) is 7.37 nM.

As to `Cc1ncc(CN2C[C@@H](C)[C@H](c3nc4c(cnn4C(C)C)c(=O)[nH]3)C2)cn1` [Example 41, 1-isopropyl-6-{(3S,4S)-4-methyl-1-[(2-methylpyrimidin-5-yl)methyl]pyrrolidin-3-yl}-1,5-dihydro-4H-pyrazolo[3,4-d]pyrimidin-4-one], the 50% inhibitory concentration (IC50) amounted to 63.8 nM.

`CC(C)n1ncc2c(=O)[nH]c([C@@H]3CN(Cc4ccnc5nccnc45)C[C@H]3C)nc21` [Example 68, 1-isopropyl-6-[(3S,4S)-4-methyl-1-(pyrido[2,3-b]pyrazin-8-ylmethyl)pyrrolidin-3-yl]-1,5-dihydro-4H-pyrazolo[3,4-d]pyrimidin-4-one]: the IC50 was determined as 36.7 nM.

Consider `C[C@@H]1CN(Cc2cccc(C(F)(F)F)c2)C[C@H]1c1nc2c(cnn2C2CCOCC2)c(=O)[nH]1` [Example 105, 6-{(3S,4S)-4-methyl-1-[3-(trifluoromethyl)benzyl]pyrrolidin-3-yl}-1-(tetrahydro-2H-pyran-4-yl)-1,5-dihydro-4H-pyrazolo[3,4-d]pyrimidin-4-one], for which the half-inhibitory concentration (IC50) was determined as 3.29 nM.

Take `CC(C)n1ncc2c(=O)[nH]c([C@@H]3CN(Cc4cnc5ccccc5c4)C[C@H]3C)nc21` (racemic) [Example 34, 1-isopropyl-6-[(3,4-trans)-4-methyl-1-(quinolin-3-ylmethyl)pyrrolidin-3-yl]-1,5-dihydro-4H-pyrazolo[3,4-d]pyrimidin-4-one]: the concentration for half-maximal inhibition (IC50) came out at 4.33 nM.

In the case of `O=c1[nH]c([C@@H]2CN(Cc3ccccc3)C[C@H]2C2CC2)nc2c1cnn2C1CCCC1` (racemic) [Example 29, 6-[(3,4-trans)-1-benzyl-4-cyclopropylpyrrolidin-3-yl]-1-cyclopentyl-1,5-dihydro-4H-pyrazolo[3,4-d]pyrimidin-4-one], the IC50 was 2.17 nM.

For the molecule `CC(C)n1ncc2c(=O)[nH]c([C@@H]3CN(Cc4ccc5cccc(F)c5n4)C[C@H]3C)nc21` (racemic) [Example 70, 6-{(3,4-trans)-1-[(8-fluoroquinolin-2-yl)methyl]-4-methylpyrrolidin-3-yl}-1-isopropyl-1,5-dihydro-4H-pyrazolo[3,4-d]pyrimidin-4-one], the half-inhibitory concentration (IC50) was 10.2 nM.

Still in this assay, the particulars now being: human recombinant PDE9 from SF-9 cells; 50 nM [3H]cGMP; room temperature, 30 min; additional compounds Ex. 115-228; read-out: G5678A (U):IC50.
As for `COc1ncccc1CN1C[C@@H](C)[C@H](c2nc3c(cnn3C3CCCC3)c(=O)[nH]2)C1` (racemic) [Example 138, 1-cyclopentyl-6-{(3,4-trans}-1-[(2-methoxypyridin-3-yl)methyl]-4-methylpyrrolidin-3-yl}-1,5-dihydro-4H-pyrazolo[3,4-d]pyrimidin-4-one], the 50% inhibitory concentration (IC50) was 47.7 nM.

For the molecule `COc1ccc(F)c(CN2C[C@@H](C)[C@H](c3nc4c(cnn4C4CCCC4)c(=O)[nH]3)C2)c1` (racemic) [Example 194, 1-cyclopentyl-6-[(3,4-trans)-1-(2-fluoro-5-methoxybenzyl)-4-methylpyrrolidin-3-yl]-1,5-dihydro-4H-pyrazolo[3,4-d]pyrimidin-4-one], the concentration for half-maximal inhibition (IC50) came out at 54.7 nM.

Consider `C[C@@H]1CN(Cc2ccc(F)c(F)c2)C[C@H]1c1nc2c(cnn2C2CCCC2)c(=O)[nH]1` (racemic) [Example 161, 1-cyclopentyl-6-[(3,4-trans)-1-(3,4-difluorobenzyl)-4-methylpyrrolidin-3-yl]-1,5-dihydro-4H-pyrazolo[3,4-d]pyrimidin-4-one], for which the half-maximal inhibitory concentration (IC50) was 40.4 nM.

Turning to `C[C@@H]1CN(Cc2ccc(C#N)cc2)C[C@H]1c1nc2c(cnn2C2CCCC2)c(=O)[nH]1` (racemic) [Example 193, 4-{[(3,4-trans)-3-(1-cyclopentyl-4-oxo-4,5-dihydro-1H-pyrazolo[3,4-d]pyrimidin-6-yl)-4-methylpyrrolidin-1-yl]methyl}benzonitrile], the IC50 was 57.7 nM.

Consider `COc1cc(CN2C[C@@H](C)[C@H](c3nc4c(cnn4C4CCCC4)c(=O)[nH]3)C2)cc(OC)c1` (racemic) [Example 152, 1-cyclopentyl-6-[(3,4-trans)-1-(3,5-dimethoxybenzyl)-4-methylpyrrolidin-3-yl]-1,5-dihydro-4H-pyrazolo[3,4-d]pyrimidin-4-one], for which the IC50 stood at 42.2 nM.

On to `C[C@@H]1CN(Cc2cccc(F)c2F)C[C@H]1c1nc2c(cnn2C2CCCC2)c(=O)[nH]1` (racemic) [Example 127, 1-cyclopentyl-6-[(3,4-trans)-1-(2,3-difluorobenzyl)-4-methylpyrrolidin-3-yl]-1,5-dihydro-4H-pyrazolo[3,4-d]pyrimidin-4-one], for which the IC50 came out at 61.7 nM.

In the case of `C[C@@H]1CN(Cc2ccc3c(c2)OCCO3)C[C@H]1c1nc2c(cnn2C2CCCC2)c(=O)[nH]1` (racemic) [Example 122, 1-cyclopentyl-6-[(3,4-trans)-1-(2-3-dihydro-1,4-benzodioxin-6-ylmethyl)-4-methylpyrrolidin-3-yl]-1,5-dihydro-4H-pyrazolo[3,4-d]pyrimidin-4-one], the IC50 was determined as 56.4 nM.

As to `C[C@@H]1CN(Cc2ccc(F)cc2F)C[C@H]1c1nc2c(cnn2C2CCCC2)c(=O)[nH]1` (racemic) [Example 147, 1-cyclopentyl-6-[(3,4-trans)-1-(2,4-difluorobenzyl)-4-methylpyrrolidin-3-yl]-1,5-dihydro-4H-pyrazolo[3,4-d]pyrimidin-4-one], the IC50 was found to be 79.8 nM.

In the case of `C[C@@H]1CN(Cc2ccc3c(c2)OCCN3C)C[C@H]1c1nc2c(cnn2C2CCCC2)c(=O)[nH]1` (racemic) [Example 200, 1-cyclopentyl-6-{(3,4-trans)-4-methyl-1-[(4-methyl-3,4-dihydro-2H-1,4-benzoxazin-7-yl)methyl]pyrrolidin-3-yl}-1,5-dihydro-4H-pyrazolo[3,4-d]pyrimidin-4-one], the IC50 stood at 176 nM.

`Cc1ccc(CN2C[C@@H](C)[C@H](c3nc4c(cnn4C4CCCC4)c(=O)[nH]3)C2)cc1C` (racemic) [Example 198, 1-cyclopentyl-6-[(3,4-trans)-1-(3,4-dimethylbenzyl)-4-methylpyrrolidin-3-yl]-1,5-dihydro-4H-pyrazolo[3,4-d]pyrimidin-4-one]: the half-maximal inhibitory concentration (IC50) was 93.6 nM.

Regarding `Cc1cc(CN2C[C@@H](C)[C@H](c3nc4c(cnn4C4CCCC4)c(=O)[nH]3)C2)ccc1F` (racemic) [Example 184, 1-cyclopentyl-6-[(3,4-trans)-1-(4-fluoro-3-methylbenzyl)-4-methylpyrrolidin-3-yl]-1,5-dihydro-4H-pyrazolo[3,4-d]pyrimidin-4-one], the IC50 amounted to 90 nM.

Regarding `CCn1nccc1CN1C[C@@H](C)[C@H](c2nc3c(cnn3C3CCCC3)c(=O)[nH]2)C1` (racemic) [Example 223, 1-cyclopentyl-6-{(3,4-trans)-1-[(1-ethyl-1H-pyrazol-5-yl)methyl]-4-methylpyrrolidin-3-yl}-1,5-dihydro-4H-pyrazolo[3,4-d]pyrimidin-4-one], the IC50 is 14.4 nM.

In the case of `C[C@@H]1CN(Cc2ccc(-n3cccn3)cc2)C[C@H]1c1nc2c(cnn2C2CCCC2)c(=O)[nH]1` (racemic) [Example 185, 1-cyclopentyl-6-{(3,4-trans)-4-methyl-1-[4-(1H-pyrazol-1-yl)benzyl]pyrrolidin-3-yl}-1,5-dihydro-4H-pyrazolo[3,4-d]pyrimidin-4-one], the IC50 is 33.5 nM.

As to `CCCc1ncc(CN2C[C@@H](C)[C@H](c3nc4c(cnn4C4CCCC4)c(=O)[nH]3)C2)cn1` (racemic) [Example 222, 1-cyclopentyl-6-{(3,4-trans)-4-methyl-1-[(2-propylpyrimidin-5-yl)methyl]pyrrolidin-3-yl}-1,5-dihydro-4H-pyrazolo[3,4-d]pyrimidin-4-one], the IC50 came out at 6.03 nM.

As for `C[C@@H]1CN(Cc2ccnc(C(C)(C)O)c2)C[C@H]1c1nc2c(cnn2C2CCCC2)c(=O)[nH]1` (racemic) [Example 189, 1-cyclopentyl-6-[(3,4-trans)-1-{[2-(1-hydroxy-1-methylethyl)pyridin-4-yl]methyl}-4-methylpyrrolidin-3-yl]-1,5-dihydro-4H-pyrazolo[3,4-d]pyrimidin-4-one], the IC50 stood at 23.7 nM.
